Measurements taken from US4190672A, “Method and compositions of treating Parkinsonisms with levodopa and 3',4'-dihydroxy-2-methylisopropiophenone” (priority 1978, dated 1980).
Like-named read-outs stand apart in the source and are kept apart here.

Assays:
[1] = Behavioral responses and deaths in rats; format: in vivo, Male Sprague-Dawley rats
Experimental: (§1) Male Sprague-Dawley rats weighing 200-300 g are fasted for 17 hours prior to the experiments. They are kept for at least two days on a day-light, night-dark cycle, and the experiments are conducted between 0900 and 1400 hours on the day following the fast. All injections are given intraperitoneally, and all drugs are given as a suspension in 1% methyl ceullulose.
1. Effect of DHMPP with time: Absolute control rats receive no injections. Levodopa controls are given levodopa, 250 mg/kg. Experimental animals are pretreated with DHMPP, 250 mg/kg, 30 min before receiving a combined injection of DHMPP and levodopa, each 250 mg/kg. Animals are decapitated at 30 min time intervals between 0 and 120 min after levodopa administration. Blood and brain are collected.
(§2) 2. Effect of dose of DHMPP: Absolute and levodopa control rats receive the same treatment as described above. Experimental rats were pretreated with DHMPP (50, 100, 150, 200 or 250 mg/kg) 30 min before receiving the injection of levodopa, 250 mg/kg. All animals are decapitated 90 min after receiving levodopa. Blood and brain are collected.

COMT [2] = assay: Effect of DHMPP with time on plasma and brain levodopa, OMD and dopamine after levodopa administration; format: in vivo, Male Sprague-Dawley rats
Experimental: (§3) Male Sprague-Dawley rats weighing 200-300 g are fasted for 17 hours prior to the experiments. They are kept for at least two days on a day-light, night-dark cycle, and the experiments are conducted between 0900 and 1400 hours on the day following the fast. All injections are given intraperitoneally, and all drugs are given as a suspension in 1% methyl ceullulose. 1. Effect of DHMPP with time: Absolute control rats receive no injections. Levodopa controls are given levodopa, 250 mg/kg. […] Blood and brain are collected. […] Analytical procedures: […] The supernatants are collected and the above procedure is repeated on the residue. The combined supernatants are stored at -20° C. Blood samples are collected in heparinized tubes immediately after decapitation, chilled, and centrifuged, and the plasma is pipetted off. Plasma proteins are precipitated in 4 volumes ice-cold 0.4 M perchloric acid solution and centrifuged at 10,000 rpm for 15 min. Protein-free supernatants are decanted and stored at -20° C. […] Am. Soc. Neurochem. 4:105 (1973) Homovanillic acid (HVA) remains in the combined effluent and subsequent water wash; these eluates undergo solvent extractions and are assayed by the automated method of […]., et al., Biochem. […] Levodopa and OMD are eluted together and assayed according to the method of Fahn, S., et al., Anal. Biochem. 46:557 (1972). After dopamine is eluted, it is measured by the automated method of […]., Brit. J. Pharmacol. All eluates are assayed within 10 days of chromatography; they are stored at -20° C., thawed and mixed thoroughly before assay.

COMT [3] = assay: Effect of dose of DHMPP on plasma and brain OMD, levodopa and dopamine after levodopa treatment; format: in vivo, Male Sprague-Dawley rats
Experimental: as §1, §2
3. Analytical procedures: Brains are chilled on ice, homogenized in 3 volumes ice-cold 0.4 M perchloric acid containing 0.025% ascorbic acid, and centrifuged at 15,000 rpm for 20 min. The supernatants are collected and the above procedure is repeated on the residue. The combined supernatants are stored at -20° C. Blood samples are collected in heparinized tubes immediately after decapitation, chilled, and centrifuged, and the plasma is pipetted off. Plasma proteins are precipitated in 4 volumes ice-cold 0.4 M perchloric acid solution and centrifuged at 10,000 rpm for 15 min. Protein-free supernatants are decanted and stored at -20° C. All samples are chromatographed within two days of the experiment.
Column chromatography of the sample extracts is carried out on a strong cation resin (Bio Rad AG 50-X8) according to the method of Prased, A. L. N., et al., Trans. Am. Soc. Neurochem. 4:105 (1973) Homovanillic acid (HVA) remains in the combined effluent and subsequent water wash; these eluates undergo solvent extractions and are assayed by the automated method of Prasad, A. L. N., et al., Biochem. Med. 9:136 (1974). Levodopa and OMD are eluted together and assayed according to the method of Fahn, S., et al., Anal. Biochem. 46:557 (1972). After dopamine is eluted, it is measured by the automated method of Atack, C. V., Brit. J. Pharmacol. All eluates are assayed within 10 days of chromatography; they are stored at -20° C., thawed and mixed thoroughly before assay.

[4] = system: catechol-O-methyl transferase (COMT); details: cited from earlier work
[5] = crystalline solid; cited from earlier work
[6] = Effect of DHMPP with time on plasma and brain levodopa, OMD and dopamine after levodopa administration; format: in vivo, Male Sprague-Dawley rats; details: rat, ip, 250 mg/kg
Experimental: as §3

[7] = DHMPP 250 mg/kg pretreatment plus DHMPP and levodopa 250 mg/kg each, i.p.
[8] = all doses of DHMPP, 90 min after levodopa

CC(C)C(=O)c1ccc(O)c(O)c1 [DHMPP, 3',4'-Dihydroxy-2-methyl-propiophenone]
degree of lethargy versus dosage of DHMPP ([1]; DHMPP 50-250 mg/kg i.p.): related to the dosage of DHMPP employed | motor activity and behavioral responses to DHMPP ([1]; DHMPP i.p., within 10 min of injection): striking reduction in motor activity within 10 min of injection, including prostration, lying on one side, rapid breathing and loss of responsiveness to handling and other stimuli | piloerection in animals receiving both inhibitor and levodopa ([1]; DHMPP plus levodopa, i.p.): Little piloerection is apparent | deaths at lower doses ([1]; rat, in vivo): Deaths do not occur | deaths, dose-response experiment ([1]; rat, in vivo, ip, 250 mg/kg): two of six | increase in plasma levodopa levels on inhibition of COMT (COMT [2]; [7]): three-fold | prevention of measurable accumulation of OMD in plasma (COMT [2]; [7]): completely prevents measurable accumulation of OMD in plasma | increase in brain levodopa concentration with COMT inhibition (COMT [2]; DHMPP plus levodopa i.p., 30 min time point): more than two-fold | increase in brain dopamine level on inhibition of COMT (COMT [2]; DHMPP plus levodopa i.p., at 60 min): more than two-fold | accumulation of brain OMD on DHMPP treatment (COMT [2]; DHMPP plus levodopa, i.p.): blocked | levodopa and dopamine concentrations in brain (conclusion) (COMT [2]; animals treated with DHMPP and levodopa): striking enhancement and prolongation of levodopa and dopamine concentrations in the brain | accumulation of 3-O-methylated derivatives of catechols in plasma and brain (conclusion) (COMT [2]; high dosage, acute levodopa administration): does inhibit the accumulation of 3-O-methylated derivatives of catechols in plasma and brain | inhibition of OMD accumulation in plasma relative to levodopa controls (COMT [3]; DHMPP 100 mg/kg i.p., 90 min after levodopa): completely inhibits | plasma OMD accumulation (COMT [3]; DHMPP 100 mg/kg or greater i.p., 90 min after levodopa): completely blocked | plasma levodopa levels (COMT [3]; DHMPP 50-250 mg/kg i.p., 90 min after levodopa 250 mg/kg): not affected | accumulation of OMD in brain (COMT [3]; DHMPP 100 and 200 mg/kg i.p., 90 min after levodopa): inhibited | inhibition at 100 mg/kg (COMT [3]; Rattus norvegicus, ip, 1.5 h, DHMPP 100 mg/kg i.p., 90 min after levodopa, read-out: inhibition of OMD accumulation in brain relative to levodopa controls): 80% | dopamine levels in brain (COMT [3]; [8]): not significantly altered | levodopa levels in brain (COMT [3]; [8]): not significantly altered | inhibition of COMT (literature) [4]: inhibition of the enzyme catechol-O-methyl transferase (COMT) | water solubility [5]: water-soluble

N[C@@H](Cc1ccc(O)c(O)c1)C(=O)O [levodopa, 3-(3,4-dihydroxyphenyl)-L-alanine]
effect of levodopa on lethargic symptoms induced by DHMPP ([1]; levodopa 250 mg/kg i.p. after DHMPP): markedly attenuates all lethargic symptoms induced by DHMPP, but does not abolish them | behavioral responses to levodopa ([1]; levodopa 250 mg/kg i.p., all rats treated with levodopa): increased locomotor activity, erection of hair (piloerection), abnormal protrusion of the eyeball (exophthalmos) and other signs of sympathetic stimulation | Tmax ([6]; in vivo, time of peak levodopa in brain): 30 min | Tmax ([6]; plasma, DHMPP plus levodopa i.p., after levodopa administration, read-out: time of peak plasma levodopa level with inhibition of COMT (converted)): 90 min | Tmax ([6]; plasma, levodopa 250 mg/kg i.p., alone or with DHMPP, after levodopa injection, read-out: time of maximal plasma levels of levodopa (converted)): 30 min | OMD accumulation in plasma after levodopa administration (COMT [2]; levodopa 250 mg/kg i.p.): progressively accumulates in plasma | time course of brain OMD levels (COMT [2]; rat, in vivo): rise slowly for the first 30 min in levodopa and absolute control animals and then increase more rapidly and linearly | time of maximal dopamine concentration in brain (COMT [2]; rat, in vivo): 30 to 60 min | brain OMD level (COMT [2]; rat, in vivo, 240 min): 18 nmol/g
